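1) Cells in 96-well plates. 2) Compound, 48 h, 5 concentrations. 3) Linear interpolation between surrounding doses. 4) Unreached endpoint = highest concentration. The concentration for 50% growth inhibition is given as GI50. TGI marks complete inhibition of growth.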 Some results are limits rather than exact numbers.

Drawing on PubChem BioAssay (NCI), this text covers TGI and GI50 for 30 molecules.

Common to all, as to assay: inhibition of tumour cell growth, NCI panel, 48 h
The subject of assay [1] is U251 CNS.
For assay [2], the system named is HT29 colon.
The test system of assay [3] is LOX IMVI melanoma.
Assay [4] relates to K-562 leukemia.
Assay [5] relates to DU-145 prostate.
Assay [6] has as its system HOP-92 NSCLC.
Assay [7] deals with SK-OV-3 ovarian.
In assay [8] the test system is UACC-62 melanoma.
Assay [9] deals with UACC-257 melanoma.
Assay [10] relates to BT-549 breast.

Consider `CO/N=C\c1ccc2c(c1)Sc1ccccc1O2`, for which the TGI in assay [1], in assay [2], in assay [3], in assay [4], in [5] and in assay [6] was over 100 µM each time. For the same molecule, the TGI in [7], in assay [8] and in assay [9] was over 100 µM in each case.

With `C1CCCCC2(CCCCCCCCC3(CCC1)SCCS3)SCCS2`, the TGI in assay [1], in [2], in [3], in assay [4], in assay [5] and in [6] was over 100 µM each time. Besides, the TGI in assay [7], in [8] and in assay [9] was over 100 µM each time.

As to `O=C1CCC[C@H]2O[C@@H](COC(=O)c3ccccc3)C[C@H]2O1`, the TGI in assay [1], in assay [2], in assay [4], in assay [5], in assay [6] and in [7] was over 100 µM in each case. Also, the TGI in assay [8] and in assay [9] was over 100 µM in each case.

Consider `Cn1c(=Nc2ccc(Cl)cc2)sc2ccccc21`, for which the TGI in [1] was over 100 µM; in assay [2], over 100 µM; in assay [3] it was over 100 µM; in [4] it was over 100 µM; in [5], over 100 µM; in assay [6], 85.7 µM. The TGI in [7], in assay [8] and in assay [9] was over 100 µM each time.

For `COC(=O)CCC1(CCC(=O)OC)CCCCCCC(CCC(=O)OC)(CCC(=O)OC)C(=O)C1=O`, the TGI in assay [1], in assay [2], in assay [3], in assay [4], in [5] and in [6] was over 100 µM in each case. In addition, the TGI in assay [7], in assay [8] and in assay [9] was over 100 µM throughout.

Consider `O=C1C(CO)=C[C@H](O)[C@H]2O[C@@H]12`, for which the TGI in assay [1] was 381 µM; in assay [2], over 625 µM; in assay [3], over 393 µM; in [4], 439 µM; in assay [6], 525 µM; in assay [7], 561 µM. Also, the TGI in [8] turned out to be 215 µM; in [9], 387 µM.

As for `CCOC(=O)C(=CNc1ccc(N(C2=NCC(C)S2)c2ccc(F)c(Cl)c2)cc1)C(=O)OCC` (stereo not drawn), the TGI in assay [1] is 48.1 µM; in [2] it was 34.7 µM; in assay [3] it was 34.5 µM; in assay [4], over 100 µM; in assay [5], 43.9 µM; in assay [6], 36.1 µM. The TGI in [7] stood at 70.7 µM; in [9], 34 µM.

As for `c1ccc2cc3c(NC4=NCCO4)cccc3cc2c1`, the TGI is over 100 µM in assay [1]; 80.4 µM in assay [2]; 95 µM in [3]; over 100 µM in assay [4]; over 100 µM in assay [5]; 74 µM in [6]. In addition, the TGI in assay [7], in assay [8] and in assay [9] was over 100 µM throughout.

For `Nc1ccccc1C#CC(=O)c1cccc(C(F)(F)F)c1`, the TGI in [1] is 3.95 µM; in assay [2], 19.2 µM; in assay [3] it was 4.02 µM; in [4], over 100 µM; in assay [5], 37.1 µM; in assay [6] it was 4.84 µM. The TGI in assay [7] turned out to be 28.6 µM; in [8] it was 3.85 µM; in assay [9], 29.5 µM.

Consider `O=C(N=Nc1ccc(Cl)cc1Cl)NNc1ccc(Cl)cc1Cl`, for which the TGI turned out to be 36.2 µM in assay [1]; 75.3 µM in [2]; 30.4 µM in [3]; 72.6 µM in assay [4]; 33.3 µM in assay [5]; 29 µM in assay [8]. The TGI came to 39.7 µM in assay [10] and 43.1 µM in assay [9].

For the molecule `O=C(c1cccs1)c1nccc2c1cnc1ccccc12`, the TGI in assay [1], in [2], in [3], in [4], in assay [5] and in assay [6] was over 100 µM each time. Besides, the TGI in assay [7], in assay [8] and in [9] was over 100 µM in each case.

For the molecule `CC1(C)OCC(C2OC3OC(C)(C)OC3C2c2ccccc2)O1` (stereo not drawn), the TGI was over 100 µM in assay [1]; over 100 µM in assay [2]; over 100 µM in assay [3]; over 100 µM in assay [4]; over 100 µM in assay [5]; 79 µM in assay [6]. Also, the figures for the TGI in [7], in assay [8] and in assay [9] were over 100 µM, 87.1 µM and over 100 µM, respectively.

On to `N#Cc1c(=O)c2ccccc2n2ccccc12`, for which the TGI in [1], in assay [2], in assay [3], in assay [4], in [5] and in assay [6] was over 100 µM each time. Also, the TGI in assay [8] and in assay [9] was over 100 µM in each case.

`CC(C)(C)C(=O)Oc1ccc(/C=C/C(=O)c2ccc(OC(=O)C(C)(C)C)cc2)cc1`: the TGI was over 100 µM in assay [1]; over 100 µM in assay [2]; over 100 µM in assay [3]; 86.7 µM in assay [4]; over 100 µM in assay [5]; over 100 µM in assay [6]. Besides, the TGI in assay [7], in assay [8] and in assay [9] was over 100 µM in each case.

In the case of `c1ccc2c(c1)NCc1cc3ccccc3nc1O2`, the TGI in assay [1], in [2], in assay [3], in assay [4], in assay [6] and in [7] was over 100 µM in each case. For the same molecule, the TGI in assay [8] and in assay [9] was over 100 µM each time.

Consider `COC(=O)C1Cc2c(OC)ccc(OC)c2C(O)C1C(=O)OC` (stereo not drawn), for which the TGI in assay [1], in assay [2], in assay [3], in assay [4], in assay [5] and in assay [6] was over 100 µM throughout. The TGI in [8] and in assay [9] was over 100 µM throughout.

Turning to `Cc1ccc(Cl)cc1N=NC(=O)NNc1cc(Cl)ccc1C`, the TGI was 59.6 µM in assay [1]; 80.6 µM in assay [2]; over 100 µM in assay [4]; 58.3 µM in assay [5]; 35.8 µM in assay [6]; 49.5 µM in assay [7]. Also, the figures for the TGI in [8] and in assay [10] were 24.2 µM and 43.9 µM, respectively.

For the molecule `C/C(=N\NC(=S)N1CCC(N2CCCCC2)CC1)c1ccccn1`, the TGI is 9.86 µM in [1]; 9.88 µM in assay [2]; 8.28 µM in assay [3]; over 100 µM in assay [4]; 11.2 µM in [5]; 9.79 µM in [6]. Further, the TGI was determined as 11.6 µM in [7], 10.7 µM in [8] and 8.93 µM in assay [9].

Turning to `O=Cc1ccc(OC[C@H]2COC(=O)N2)cc1`, the TGI in assay [1], in assay [2], in assay [3], in [4], in assay [5] and in assay [7] was over 100 µM each time. Further, the TGI in assay [8], in assay [10] and in assay [9] was over 100 µM in each case.

In the case of `COc1cc(/C=N/N=C(\N)NO)cc(OC)c1OC`, the TGI was over 100 µM in assay [1]; over 100 µM in assay [2]; over 100 µM in [3]; 49.2 µM in assay [4]; over 100 µM in assay [5]; over 100 µM in [6]. The TGI in assay [7] is over 100 µM; in assay [8], 50.5 µM; in assay [9], over 100 µM.

For `COc1cccc2c1C(=O)c1c(O)c3c(c(O)c1C2=O)C[C@@](O)(C(=O)COC(=O)c1ccccc1)C[C@@H]3OC1CC(N)C(O)C(C)O1` (stereo partly drawn), the GI50 in [1] was 0.113 µM; in [2] it was 0.102 µM; in [4] it was 0.104 µM; in assay [5], 0.252 µM; in [6], 0.0638 µM; in assay [7], 0.264 µM. Also, the GI50 in assay [10] was 0.7 µM; in assay [9] it was 0.262 µM. The TGI was 0.273 µM in [1]; 0.273 µM in [2]; 0.327 µM in assay [4]; 1.1 µM in assay [5]; 0.392 µM in [6]; 1.44 µM in assay [7]. The TGI came out at 2.32 µM in [10] and 1.27 µM in [9].

Take `O=C(Nc1cccc(F)c1)c1cc2ccc(O)cc2oc1=Nc1cccc(F)c1`: the TGI in assay [1] was over 100 µM; in [2], over 100 µM; in assay [3] it was 9.35 µM; in assay [4] it was over 100 µM; in assay [5] it was over 100 µM; in [7], over 100 µM. Besides, the values for the TGI in assay [8], in [10] and in [9] were over 100 µM, 34.3 µM and over 100 µM, respectively.

Take `Cc1cccc2[nH]c3c(c(O)cc4[nH]c5cccc(C)c5c(=O)c43)c(=O)c12`: the TGI in [1], in assay [2], in assay [3], in [4], in [5] and in assay [7] was over 10 µM throughout. Besides, the TGI in assay [8], in assay [10] and in [9] was over 10 µM in each case.

With `Cc1cccc2oc3c(c(=O)c12)CC(O)C(C)(C)O3` (stereo not drawn), the TGI in assay [1], in [2], in assay [3], in [4], in assay [5] and in [6] was over 100 µM in each case. Moreover, the TGI in assay [7], in [8] and in [9] was over 100 µM throughout.

For `COc1cc(C(=O)Oc2c(C(C)=O)sc3c2c(=O)n(-c2ccccc2)c(=S)n3-c2ccccc2)cc(OC)c1OC`, the TGI in assay [1] was 77.8 µM; in assay [2] it was 32.8 µM; in assay [3], 40.1 µM; in assay [4] it was over 100 µM; in [5] it was 50.6 µM; in assay [6], 55.8 µM. In addition, the TGI in [7] is over 100 µM; in assay [8], 47.6 µM; in assay [9], 68.3 µM.

As for `O=C(c1ccccc1)N1C(=O)N(c2ccccc2)C(=Nc2ccccc2)C1=Nc1ccccc1`, the TGI in [1], in assay [2], in assay [3], in assay [4], in [5] and in [6] was over 100 µM each time. Moreover, the TGI in assay [7] is over 100 µM; in assay [8], 31.8 µM; in [9], over 100 µM.

`COc1ccc(-c2c(-c3ccc(OC)cc3)n3c(=O)n(C)c(=O)n23)cc1`: the TGI in [1] was over 100 µM; in assay [3] it was over 100 µM; in assay [4] it was over 100 µM; in assay [5], 65.2 µM; in assay [6], 76 µM; in assay [7], over 100 µM. Also, the TGI in assay [8] and in assay [9] was over 100 µM each time.

Take `CC(=O)C(C(=O)c1ccc(C)cc1)[C@H]1OC(C)(C)O[C@H]1[C@H]1COC(C)(C)O1` (stereo partly drawn): the TGI was 7 µM in assay [1]; 9.35 µM in assay [2]; 8.16 µM in assay [3]; over 50 µM in assay [4]; 16.7 µM in [6]; 18.4 µM in [7]. Moreover, the values for the TGI in assay [8], in assay [10] and in assay [9] were 12.5 µM, over 50 µM and 11.9 µM, respectively.

Turning to `O=c1oc(-c2ccc(O)cc2)cc2cc(O)ccc12`, the TGI was 39.8 µM in assay [4]; over 100 µM in assay [5]; 96.2 µM in [6]; 74.9 µM in [7]; 62.1 µM in assay [10]; over 100 µM in assay [9].

For `O=C(O)c1nc2ccc(C(F)(F)F)cc2nc1Nc1ccc(Cl)c(Cl)c1`, the TGI in [1] is 14.7 µM; in [2], 27.1 µM; in assay [3] it was 21.5 µM; in [4] it was 16.3 µM; in assay [8], 18 µM; in assay [10] it was 14.7 µM. Also, the TGI in [9] was determined as 56.4 µM.
